Earlier results, collected in patent US9867391B2, “Accelerating muscle recovery after immobilization-induced muscle atrophy” (NESTEC S.A., priority 2011, dated 2018).

System: muscle protein synthesis
Conditions: Kastanos et al. 2006

SMILES: CC(C)C[C@H](N)C(=O)O [leucine]
- muscle protein synthesis in young subjects (leucine added to the diet, young subjects): did not increased muscle protein synthesis
- muscle protein synthesis in elderly (same leucine supplementation, elderly): efficient
